According to US20070292451A1, “Medical herb composition for promoting the growth of hair A mammal and the manufacturing method thereof” (Brion Research Institute of Taiwan, priority 2006, published 2007):

System: humans
Assay: Oral administration of the medical herb composition to human volunteers with hair shedding
Type: in vivo
Details: Example 14: person
From the text: The administered dose is based on body weight. For dogs and cats, the dose was 1-1.5 g/5 kg/day. […] because dogs and cats have higher metabolism rate than humans. […] The forehead hairline moved forward after one month, and generally the hair became thick. […] The efficacy of the composition is clearly identified by comparing the photo taken at the 37th day after the first administration of the composition (FIG. 8(b)) to that taken at 5th day (FIG. 8(a)). […] The test was performed on a volunteer, a person ([…]). […] They were diagnosed to suffer from Male Pattern Baldness. […] The efficacy of the composition is clearly identified by comparing the photo taken after the administration of the composition for 1 month (FIG. 9(b)) to that taken before the administration of the composition (FIG. 9(a)). […] In addition, after continuous administration of the composition for 1 month, their eyesight was 150 degree less than that before the administration of the composition.

CC(C)(C)NC(=O)[C@H]1CC[C@H]2[C@@H]3CC[C@H]4NC(=O)C=C[C@]4(C)[C@H]3CC[C@]12C [Finasteride]
effect on Male Pattern Baldness (earlier treatment of the subject): the effect was poor
